Test results as given in patent US9593156B2 (priority 2012, dated 2017).
“And” between values parts separate entries of the source, which are not always exact repeats. Identical values can stand only once. Like-named read-outs stand apart in the source and are kept apart here. Square brackets hold non-standard residues; d marks the D form. Primed or numbered codes have the meaning given here. Ends that are not written are not given here. PEG4′ = PEG spacer of 4 units in the linker; PEG8′ = PEG spacer of 8 units in the linker

How the values were obtained:
IGF-1 receptor [1] = biological target: T1, IGF-1 receptor (Homo sapiens, UniProt P08069); assay: IGF-1 receptor phosphorylation assay in receptor transfected HEK293 cells; type: cell-based; set-up: expressed in transfected cells; host or cells: HEK293
T1 sequence (P08069 31-736 limits assumed): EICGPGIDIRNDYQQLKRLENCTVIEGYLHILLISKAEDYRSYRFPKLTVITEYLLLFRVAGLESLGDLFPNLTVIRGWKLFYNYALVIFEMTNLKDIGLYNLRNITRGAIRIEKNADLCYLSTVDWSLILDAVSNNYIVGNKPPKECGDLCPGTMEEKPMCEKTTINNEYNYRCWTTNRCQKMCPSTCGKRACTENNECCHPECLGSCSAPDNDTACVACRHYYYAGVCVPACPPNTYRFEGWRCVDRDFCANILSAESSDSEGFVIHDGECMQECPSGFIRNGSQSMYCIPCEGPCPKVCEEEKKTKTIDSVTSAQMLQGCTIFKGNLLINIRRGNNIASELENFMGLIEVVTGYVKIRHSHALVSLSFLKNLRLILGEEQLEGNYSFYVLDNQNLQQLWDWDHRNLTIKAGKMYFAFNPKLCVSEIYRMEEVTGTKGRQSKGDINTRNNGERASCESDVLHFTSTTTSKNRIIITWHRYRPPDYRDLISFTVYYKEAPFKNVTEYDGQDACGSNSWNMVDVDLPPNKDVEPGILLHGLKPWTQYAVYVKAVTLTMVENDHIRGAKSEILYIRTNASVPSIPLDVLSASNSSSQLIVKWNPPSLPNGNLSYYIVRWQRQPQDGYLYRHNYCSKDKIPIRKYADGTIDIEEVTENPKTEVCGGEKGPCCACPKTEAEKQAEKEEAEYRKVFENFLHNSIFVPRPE
T1 sequence (P08069 741-1367 partner limits assumed): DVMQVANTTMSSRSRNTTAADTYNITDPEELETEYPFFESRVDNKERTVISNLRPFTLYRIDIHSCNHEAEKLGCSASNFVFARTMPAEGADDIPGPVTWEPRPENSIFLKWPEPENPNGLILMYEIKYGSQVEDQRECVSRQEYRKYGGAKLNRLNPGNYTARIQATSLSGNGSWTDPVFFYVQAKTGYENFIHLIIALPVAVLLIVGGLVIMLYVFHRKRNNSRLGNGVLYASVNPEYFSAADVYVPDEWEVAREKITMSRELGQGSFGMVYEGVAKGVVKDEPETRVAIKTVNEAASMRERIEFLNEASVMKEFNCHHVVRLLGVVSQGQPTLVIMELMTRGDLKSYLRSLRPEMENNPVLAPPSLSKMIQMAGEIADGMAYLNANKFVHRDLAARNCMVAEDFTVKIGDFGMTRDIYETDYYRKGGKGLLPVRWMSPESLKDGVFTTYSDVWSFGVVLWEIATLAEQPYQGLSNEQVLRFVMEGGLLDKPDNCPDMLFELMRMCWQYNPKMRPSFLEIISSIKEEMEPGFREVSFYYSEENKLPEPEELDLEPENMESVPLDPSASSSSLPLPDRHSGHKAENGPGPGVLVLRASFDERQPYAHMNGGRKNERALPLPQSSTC

IGF-1 receptor [2] = biological target: T1, IGF-1 receptor; assay: IGF-1 receptor competition binding assay (scintillation proximity); set-up: expressed in transfected cells; plasma membrane fragments
insulin receptor [3] = biological target: T2, insulin receptor (Homo sapiens, UniProt P06213); assay: Insulin receptor competition binding assay (scintillation proximity); set-up: expressed in transfected cells; plasma membrane fragments
insulin receptor [4] = biological target: T2, insulin receptor; assay: Insulin receptor phosphorylation assay in receptor transfected HEK293 cells; type: cell-based; set-up: expressed in transfected cells; host or cells: HEK293
[5] = biological target: T3, type B insulin receptor (IR-B) (Homo sapiens, UniProt P06213); assay: Receptor kinase activity (phosphorylation) assay, type B insulin receptor; type: cell-based; conditions: Table 17
T3 construct: expressed in transfected cells; host or cells: HEK293

[6] = blood glucose lowering in mice
[7] = biological target: T4, type A insulin receptor (IR-A) (Homo sapiens, UniProt P06213); assay: Receptor kinase activity (phosphorylation) assay, type A insulin receptor; type: cell-based
T4 construct: expressed in transfected cells; host or cells: HEK293

[8] = Table 9, IGF-1 receptor versus insulin receptor

**Q.** With `CC[C@H](C)[C@H](NC(=O)CN)C(=O)N[C@H](C(=O)N[C@@H](CC(=O)O)C(=O)N[C@@H](CCC(=O)O)C(=O)N[C@H]1CSSC[C@@H]2NC(=O)[C@H](CO)NC(=O)[C@H](CCCNC(=N)N)NC(=O)[C@H](Cc3ccccc3)NC(=O)[C@H](CSSC[C@H](NC(=O)[C@H](CC(C)C)NC(=O)[C@@H](NC(=O)[C@H](CCC(=O)O)NC(=O)[C@@H]3CCCN3C(=O)CN)[C@@H](C)O)C(=O)NCC(=O)N[C@@H](C)C(=O)N[C@@H](CCC(=O)O)C(=O)N[C@@H](CC(C)C)C(=O)N[C@@H](C(C)C)C(=O)N[C@@H](CC(=O)O)C(=O)N[C@@H](C)C(=O)N[C@@H](CC(C)C)C(=O)N[C@@H](Cc3ccc(O)cc3)C(=O)N[C@@H](CC(C)C)C(=O)N[C@@H](C(C)C)C(=O)N[C@H](C(=O)NCC(=O)N[C@@H](CC(=O)O)C(=O)N[C@@H](CCCNC(=N)N)C(=O)NCC(=O)N[C@@H](Cc3ccccc3)C(=O)N[C@@H](Cc3ccc(O)cc3)C(=O)N[C@@H](Cc3ccccc3)C(=O)N[C@@H](CC(N)=O)C(=O)N[C@@H](CCCCN)C(=O)N3CCC[C@H]3C(=O)N[C@H](C(N)=O)[C@@H](C)O)CSSC[C@@H](C(=O)N[C@@H](C)C(N)=O)NC(=O)[C@H](Cc3ccc(O)cc3)NC(=O)[C@H](CCSC)NC(=O)[C@H](CCC(=O)O)NC(=O)[C@H](CC(C)C)NC(=O)[C@H](CCCNC(=N)N)NC(=O)[C@H](CCCNC(=N)N)NC(=O)[C@H](CC(C)C)NC(=O)[C@H](CC(=O)O)NC2=O)NC1=O)C(C)C` [IGF-1 A:B(E10Y16L17)] as the molecule, how does the “% IGF” value (IGF-1 receptor [1]; Table 10, IGF-1 Receptor) read?
**A.** 13%

**Q.** And the “% IGF-1 (in test)” value (IGF-1 receptor [2]; Table 9, IGF-1 Receptor)?
**A.** 6.8% and 5.0%

**Q.** And the IC80 (IGF-1 receptor [2]; Table 9, IGF-1 Receptor)?
**A.** 12.2 nM

**Q.** What about the Ratio (IGF-1 receptor [2]; [8]) of the same molecule?
**A.** 11.9

**Q.** And the IC50 (insulin receptor [3]; IC50:)?
**A.** 0.51 nM

**Q.** And the “% insulin (in test)” value (insulin receptor [3]; Table 9, Insulin Receptor)?
**A.** 58.7% and 98.8%

**Q.** And the “% native insulin activity (0.6 nM)” value (insulin receptor [3]; Table 9, Insulin Receptor)?
**A.** 90.9% and 117.6%

**Q.** And the “% Insulin” value (insulin receptor [4]; Table 10, Insulin Receptor)?
**A.** 49.2%

**Q.** What does the source list for “C8-PEG20K B^1(H5,Y16,L17)25-PEG8-K-PEG4-A^1(N18,N21) (GPEHLCGAELVDALYLVCGDRGFY[PEG8′]K(PEG 20 kDa)[PEG4′]GIVDECCFRSCDLRRLENYCN; ends and bridges not checked) [#38]”?
**A.** Phosphorylation (EC50) % IR-B [5]: 2.0%; duration of action [6]: 24 h; % Insulin Activity IR-A ([7]; Table 12): 14.8%; Phosphorylation (EC50) % IR-A ([7]; Table 17): 14.8%; agonist character at the insulin receptor (type A) ([7]; result in words): full agonist

**Q.** What does the source list for `CC[C@H](C)[C@H](NC(=O)CN)C(=O)N[C@H](C(=O)N[C@@H](CC(=O)O)C(=O)N[C@@H](CCC(=O)O)C(=O)N[C@H]1CSSC[C@@H]2NC(=O)[C@H](CO)NC(=O)[C@H](CCCNC(=N)N)NC(=O)[C@H](Cc3ccccc3)NC(=O)[C@H](CSSC[C@H](NC(=O)[C@H](CC(C)C)NC(=O)[C@@H](NC(=O)[C@H](CCC(=O)O)NC(=O)[C@@H]3CCCN3C(=O)CN)[C@@H](C)O)C(=O)NCC(=O)N[C@@H](C)C(=O)N[C@@H](CC(=O)O)C(=O)N[C@@H](CC(C)C)C(=O)N[C@@H](C(C)C)C(=O)N[C@@H](CC(=O)O)C(=O)N[C@@H](C)C(=O)N[C@@H](CC(C)C)C(=O)N[C@@H](Cc3ccc(O)cc3)C(=O)N[C@@H](CC(C)C)C(=O)N[C@@H](C(C)C)C(=O)N[C@H](C(=O)NCC(=O)N[C@@H](CC(=O)O)C(=O)N[C@@H](CCCNC(=N)N)C(=O)NCC(=O)N[C@@H](Cc3ccccc3)C(=O)N[C@@H](Cc3ccc(O)cc3)C(N)=O)CSSC[C@@H](C(=O)N[C@@H](C)C(=O)O)NC(=O)[C@H](Cc3ccc(O)cc3)NC(=O)[C@H](CCSC)NC(=O)[C@H](CCC(=O)O)NC(=O)[C@H](CC(C)C)NC(=O)[C@H](CCCNC(=N)N)NC(=O)[C@H](CCCNC(=N)N)NC(=O)[C@H](CC(C)C)NC(=O)[C@H](CC(=O)O)NC2=O)NC1=O)C(C)C` [IGF-1 A:B(D10Y16L17) DPI A-COOH]?
**A.** % IGF (IGF-1 receptor [1]; Table 10, IGF-1 Receptor): 111.538%; % IGF-1 (in test) (IGF-1 receptor [2]; Table 9, IGF-1 Receptor): 7.7%; % Insulin (insulin receptor [4]; Table 10, Insulin Receptor): 1575%

**Q.** Which results are given for `CC[C@H](C)[C@H](NC(=O)CN)C(=O)N[C@H](C(=O)N[C@@H](CC(=O)O)C(=O)N[C@@H](CCC(=O)O)C(=O)N[C@H]1CSSC[C@@H]2NC(=O)[C@H](CO)NC(=O)[C@H](C)NC(=O)[C@H](Cc3c[nH]cn3)NC(=O)[C@H](CSSC[C@H](NC(=O)[C@H](CC(C)C)NC(=O)[C@H](Cc3c[nH]cn3)NC(=O)[C@H](CCC(=O)O)NC(=O)[C@@H]3CCCN3C(=O)CN)C(=O)NCC(=O)N[C@@H](C)C(=O)N[C@@H](CC(=O)O)C(=O)N[C@@H](CC(C)C)C(=O)N[C@@H](C(C)C)C(=O)N[C@@H](CC(=O)O)C(=O)N[C@@H](C)C(=O)N[C@@H](CC(C)C)C(=O)N[C@@H](Cc3ccc(O)cc3)C(=O)N[C@@H](CC(C)C)C(=O)N[C@@H](C(C)C)C(=O)N[C@H](C(=O)NCC(=O)N[C@@H](CC(=O)O)C(=O)N[C@@H](C)C(=O)NCC(=O)N[C@@H](Cc3ccccc3)C(=O)N[C@@H](Cc3ccc(O)cc3)C(N)=O)CSSC[C@@H](C(=O)N[C@@H](CC(N)=O)C(=O)O)NC(=O)[C@H](Cc3ccc(O)cc3)NC(=O)[C@H](CCSC)NC(=O)[C@H](CCC(=O)O)NC(=O)[C@H](CC(C)C)NC(=O)[C@H](CCCNC(=N)N)NC(=O)[C@H](CCCNC(=N)N)NC(=O)[C@H](CC(C)C)NC(=O)[C@H](CC(=O)O)NC2=O)NC1=O)C(C)C`?
**A.** % IGF (IGF-1 receptor [1]): 7.7%; Selective Ratio (IGF-1 receptor [1]): 32.54; % IGF-1 (in test) (IGF-1 receptor [2]): 2.3%; Ratio (IGF-1 receptor [2]): 190.3; % insulin (in test) (insulin receptor [3]): 1171.4%; % Insulin (insulin receptor [4]): 360% and 614%

**Q.** What does the source list for `CC[C@H](C)[C@H](NC(=O)CN)C(=O)N[C@H](C(=O)N[C@@H](CC(=O)O)C(=O)N[C@@H](CCC(=O)O)C(=O)N[C@H]1CSSC[C@@H]2NC(=O)[C@H](CO)NC(=O)[C@H](C)NC(=O)[C@H](Cc3c[nH]cn3)NC(=O)[C@H](CSSC[C@H](NC(=O)[C@H](CC(C)C)NC(=O)[C@H](Cc3c[nH]cn3)NC(=O)[C@H](CCC(=O)O)NC(=O)[C@@H]3CCCN3C(=O)CN)C(=O)NCC(=O)N[C@@H](C)C(=O)N[C@@H](CC(=O)O)C(=O)N[C@@H](CC(C)C)C(=O)N[C@@H](C(C)C)C(=O)N[C@@H](CC(=O)O)C(=O)N[C@@H](C)C(=O)N[C@@H](CC(C)C)C(=O)N[C@@H](Cc3ccc(O)cc3)C(=O)N[C@@H](CC(C)C)C(=O)N[C@@H](C(C)C)C(=O)N[C@H](C(=O)NCC(=O)N[C@@H](CC(=O)O)C(=O)N[C@@H](CCCNC(=N)N)C(=O)NCC(=O)N[C@@H](Cc3ccccc3)C(=O)N[C@@H](Cc3ccc(O)cc3)C(N)=O)CSSC[C@@H](C(=O)N[C@@H](CC(N)=O)C(=O)O)NC(=O)[C@H](Cc3ccc(O)cc3)NC(=O)[C@H](CCSC)NC(=O)[C@H](CCC(=O)O)NC(=O)[C@H](CC(C)C)NC(=O)[C@H](CCCNC(=N)N)NC(=O)[C@H](CCCNC(=N)N)NC(=O)[C@H](CC(C)C)NC(=O)[C@H](CC(=O)O)NC2=O)NC1=O)C(C)C`?
**A.** % IGF (IGF-1 receptor [1]; Table 10, IGF-1 Receptor): 181.395%; % IGF-1 (in test) (IGF-1 receptor [2]; Table 9, IGF-1 Receptor): 12.9%; Ratio (IGF-1 receptor [2]; [8]): 80.6; % insulin (in test) (insulin receptor [3]; Table 9, Insulin Receptor): 1576.7% and 1667.0%; % Insulin (insulin receptor [4]; Table 10, Insulin Receptor, listed as IGF-1 A (H8 A9 N21) B(H5D10Y16L17) DPI A-COOH): 840% and 1080%
